From US9580444B2, “Polycyclic pyrazolinone derivative and herbicide comprising same as effective component thereof” (priority 2013, dated 2017)

Legend:
Assay type in all cases: in vivo
[1] = test system: Amaranthus viridis (green amaranthus); test: Test Example-2: herbicidal effect by a soil treatment before weeds are generated under upland field conditions; conditions: application amount 500 g a.i/ha, soil spray treatment before weeds are generated, about 21 days after the treatment, score 0 to 5
Source text: (§1) Using the formulation prepared according to the methods described above, the herbicidal effect of the bicyclic pyrazolinone derivative of the invention according to the methods shown in Test Examples below was examined. The herbicidal effect with respect to the test weeds or the phytotoxicity with respect to the test crops was examined according to the following criteria, and evaluated in six stage scores of 0 to 5. A vat having an area of 81 cm^2 and a depth of 3.5 cm was filled with upland soil, then, seeds of Amaranthus viridis (green amaranthus), Chenopodium album (common lambsquarters), and corn were seeded thereto, and the seeds were covered with soil of about 0.5 cm. Next day, a wettable powder or an emulsifiable concentrate of the compound of the present invention prepared according to Formulation Example was diluted, and a spray treatment was uniformly performed on the covered oil so as to be a predetermined dosage. The herbicidal effect with respect to the test weeds and the phytotoxicity with respect to corn about 21 days after the treatment were evaluated according to the evaluation criteria in six stages of 0 to 5 described above.

[2] = test system: Chenopodium album (common lambsquarters); test: as above; conditions: application amount 500 g a.i/ha, soil spray treatment before weeds are generated, about 21 days after the treatment, score 0 to 5
Source text: as §1

[3] = test system: corn; test: Test Example-2: phytotoxicity by a soil treatment before weeds are generated under upland field conditions; conditions: application amount 500 g a.i/ha, soil spray treatment before weeds are generated, about 21 days after the treatment, score 0 to 5
Source text: as §1

[4] = test system: Abutilon theophrasti (velvetleaf); test: Test Example-4: herbicidal effect by a foliage treatment after weeds are generated under upland field conditions; conditions: 500 g a.i/ha, foliage treatment after emergence, about 14 days after treatment, score 0-5
In short: (§2)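 Post-emergence foliar test: wettable powder or emulsifiable concentrate was diluted and sprayed at 4000 L water/ha at a set dosage onto plants raised 14 days from seed in upland soil. Herbicidal effect and corn injury were rated 0–5 roughly 14 days later.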

[5] = test system: Amaranthus viridis (green amaranthus); test: as above; conditions: 500 g a.i/ha, foliage treatment after emergence, about 14 days after treatment, score 0-5
In short: as §2

[6] = test system: Chenopodium album (common lambsquarters); test: as above; conditions: 500 g a.i/ha, foliage treatment after emergence, about 14 days after treatment, score 0-5
In short: as §2

[7] = test system: corn; test: Test Example-4: phytotoxicity by a foliage treatment after weeds are generated under upland field conditions; conditions: 500 g a.i/ha, foliage treatment after emergence, about 14 days after treatment, score 0-5
In short: as §2

[8] = test system: Cyperus difformis (smallflower umbrella plant); test: Test Example-1: herbicidal effect by a treatment before weeds are generated under submerged conditions; conditions: 500 g a.i/ha, pre-emergence treatment, about 15 days after treatment, score 0-5
In short: (§3)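 This is a pre-emergence test under flooding: compound formulations were applied into the water at a set dosage on the day weeds were sown in puddled paddy soil. Weed control was rated on a six-step 0–5 scale roughly 15 days later.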

[9] = test system: Echinochloa oryzicola (barnyard grass); test: as above; conditions: 500 g a.i/ha, pre-emergence treatment, about 15 days after treatment, score 0-5
In short: as §3

[10] = test system: Eleocharis acicularis (needle spikerush); test: as above; conditions: 500 g a.i/ha, pre-emergence treatment, about 15 days after treatment, score 0-5
In short: as §3

[11] = test system: Monochoria vaginalis (monochoria); test: as above; conditions: 500 g a.i/ha, pre-emergence treatment, about 15 days after treatment, score 0-5
In short: as §3

[12] = test system: Scirpus juncoides (bulrush); test: as above; conditions: 500 g a.i/ha, pre-emergence treatment, about 15 days after treatment, score 0-5
In short: as §3

[13] = test system: other annual broad leaf weeds (Lindernia procumbens, Rotala indica, Elatine triandra); test: as above; conditions: 500 g a.i/ha, pre-emergence treatment, about 15 days after treatment, score 0-5
In short: as §3

| Structure (SMILES) | Herbicidal effect Amaranthus viridis [1] | Herbicidal effect Chenopodium album [2] | Phytotoxicity Corn [3] | Herbicidal effect Abutilon theophrast [4] | Herbicidal effect Amaranthus viridis [5] | Herbicidal effect Chenopodium album [6] | Phytotoxicity Corn [7] | Herbicidal effect Cyperus difformis [8] | Herbicidal effect Echinochloa oryzicola [9] | Herbicidal effect Eleocharis acicularis [10] | Herbicidal effect Monochoria vaginalis [11] | Herbicidal effect Scirpus juncoides [12] | Herbicidal effect Broadleaf weed [13] |
| --- | --- | --- | --- | --- | --- | --- | --- | --- | --- | --- | --- | --- | --- |
| CS(=O)(=O)Nc1cc(-c2c(Cl)n3n(c2=O)CCCC3)c(F)cc1Cl [Example 5-35] | 5 (Herbicidal effect/phytotoxicity was 90% or greater) | 5 (Herbicidal effect/phytotoxicity was 90% or greater) | 0 (Herbicidal effect/phytotoxicity was 0% to 10%) | 5 (Herbicidal effect/phytotoxicity was 90% or greater) | 5 (Herbicidal effect/phytotoxicity was 90% or greater) | 5 (Herbicidal effect/phytotoxicity was 90% or greater) | 0 (Herbicidal effect/phytotoxicity was 0% to 10%) | – | – | – | – | – | – |
| O=c1c(-c2cc(OC3CCCC3)c(Cl)cc2F)c(Cl)n2n1CCCC2 [Example 1-181] | 5 (Herbicidal effect/phytotoxicity was 90% or greater) | 5 (Herbicidal effect/phytotoxicity was 90% or greater) | 0 (Herbicidal effect/phytotoxicity was 0% to 10%) | 5 (Herbicidal effect/phytotoxicity was 90% or greater) | 5 (Herbicidal effect/phytotoxicity was 90% or greater) | 5 (Herbicidal effect/phytotoxicity was 90% or greater) | 1 (Herbicidal effect/phytotoxicity was 10% to 30%) | 5 (Herbicidal effect/phytotoxicity was 90% or greater) | 5 (Herbicidal effect/phytotoxicity was 90% or greater) | 5 (Herbicidal effect/phytotoxicity was 90% or greater) | 5 (Herbicidal effect/phytotoxicity was 90% or greater) | 5 (Herbicidal effect/phytotoxicity was 90% or greater) | 5 (Herbicidal effect/phytotoxicity was 90% or greater) |
| C=C(Cl)COc1cc(-c2c(Cl)n3n(c2=O)CCCC3)c(F)cc1Cl [Example 1-369] | 5 (Herbicidal effect/phytotoxicity was 90% or greater) | 5 (Herbicidal effect/phytotoxicity was 90% or greater) | 0 (Herbicidal effect/phytotoxicity was 0% to 10%) | 5 (Herbicidal effect/phytotoxicity was 90% or greater) | 5 (Herbicidal effect/phytotoxicity was 90% or greater) | 5 (Herbicidal effect/phytotoxicity was 90% or greater) | 1 (Herbicidal effect/phytotoxicity was 10% to 30%) | 5 (Herbicidal effect/phytotoxicity was 90% or greater) | 5 (Herbicidal effect/phytotoxicity was 90% or greater) | 5 (Herbicidal effect/phytotoxicity was 90% or greater) | 5 (Herbicidal effect/phytotoxicity was 90% or greater) | 5 (Herbicidal effect/phytotoxicity was 90% or greater) | 5 (Herbicidal effect/phytotoxicity was 90% or greater) |
| O=c1c(-c2cc(NS(=O)(=O)C3CC3)c(Cl)cc2F)c(Cl)n2n1CCCC2 [Example 5-58] | 5 (Herbicidal effect/phytotoxicity was 90% or greater) | 5 (Herbicidal effect/phytotoxicity was 90% or greater) | 0 (Herbicidal effect/phytotoxicity was 0% to 10%) | 5 (Herbicidal effect/phytotoxicity was 90% or greater) | 5 (Herbicidal effect/phytotoxicity was 90% or greater) | 5 (Herbicidal effect/phytotoxicity was 90% or greater) | 0 (Herbicidal effect/phytotoxicity was 0% to 10%) | – | – | – | – | – | – |
| CS(=O)(=O)N(c1cc(-c2c(Cl)n3n(c2=O)CCCC3)c(F)cc1Cl)S(C)(=O)=O [Example 5-71] | 5 (Herbicidal effect/phytotoxicity was 90% or greater) | 5 (Herbicidal effect/phytotoxicity was 90% or greater) | 0 (Herbicidal effect/phytotoxicity was 0% to 10%) | 5 (Herbicidal effect/phytotoxicity was 90% or greater) | 5 (Herbicidal effect/phytotoxicity was 90% or greater) | 5 (Herbicidal effect/phytotoxicity was 90% or greater) | 0 (Herbicidal effect/phytotoxicity was 0% to 10%) | – | – | – | – | – | – |
| C#CCOc1cc(-c2c(Cl)n3n(c2=O)CCCCC3)c(Cl)cc1Cl [Example 1-303] | 5 (Herbicidal effect/phytotoxicity was 90% or greater) | 5 (Herbicidal effect/phytotoxicity was 90% or greater) | 0 (Herbicidal effect/phytotoxicity was 0% to 10%) | 5 (Herbicidal effect/phytotoxicity was 90% or greater) | 5 (Herbicidal effect/phytotoxicity was 90% or greater) | 5 (Herbicidal effect/phytotoxicity was 90% or greater) | 1 (Herbicidal effect/phytotoxicity was 10% to 30%) | 5 (Herbicidal effect/phytotoxicity was 90% or greater) | 5 (Herbicidal effect/phytotoxicity was 90% or greater) | 5 (Herbicidal effect/phytotoxicity was 90% or greater) | 5 (Herbicidal effect/phytotoxicity was 90% or greater) | 5 (Herbicidal effect/phytotoxicity was 90% or greater) | 5 (Herbicidal effect/phytotoxicity was 90% or greater) |
| CCOC(=O)C(OCC)Oc1ccccc1Oc1cc(-c2c(Cl)n3n(c2=O)CCCC3)c(F)cc1Cl (centres unmarked) [Compound 3-18] | 5 (Herbicidal effect/phytotoxicity was 90% or greater) | 5 (Herbicidal effect/phytotoxicity was 90% or greater) | 0 (Herbicidal effect/phytotoxicity was 0% to 10%) | – | – | – | – | 5 (Herbicidal effect/phytotoxicity was 90% or greater) | 5 (Herbicidal effect/phytotoxicity was 90% or greater) | 5 (Herbicidal effect/phytotoxicity was 90% or greater) | 5 (Herbicidal effect/phytotoxicity was 90% or greater) | 5 (Herbicidal effect/phytotoxicity was 90% or greater) | 5 (Herbicidal effect/phytotoxicity was 90% or greater) |
| O=c1c(-c2cc(NS(=O)(=O)CCl)c(Cl)cc2F)c(Cl)n2n1CCOCC2 [Example 5-49] | 5 (Herbicidal effect/phytotoxicity was 90% or greater) | 5 (Herbicidal effect/phytotoxicity was 90% or greater) | 0 (Herbicidal effect/phytotoxicity was 0% to 10%) | 5 (Herbicidal effect/phytotoxicity was 90% or greater) | 5 (Herbicidal effect/phytotoxicity was 90% or greater) | 5 (Herbicidal effect/phytotoxicity was 90% or greater) | 1 (Herbicidal effect/phytotoxicity was 10% to 30%) | – | – | – | – | – | – |
| C#CCOc1cc(-c2c(Cl)n3n(c2=O)CCCCC3)c(F)cc1Cl [Example 1-239] | 5 (Herbicidal effect/phytotoxicity was 90% or greater) | 5 (Herbicidal effect/phytotoxicity was 90% or greater) | 0 (Herbicidal effect/phytotoxicity was 0% to 10%) | 5 (Herbicidal effect/phytotoxicity was 90% or greater) | 5 (Herbicidal effect/phytotoxicity was 90% or greater) | 5 (Herbicidal effect/phytotoxicity was 90% or greater) | 2 (Herbicidal effect/phytotoxicity was 30% to 50%) | – | – | – | – | – | – |
